This is an account of results in US12521393B2, “Cytotoxicity targeting chimeras for CCR2-expressing cells” (GLAXOSMITHKLINE INTELLECTUAL PROPERTY DEVELOPMENT LIMITED, priority 2021, dated 2026).

Test [1] relates to endogenous target monocytes in human PBMC. The experiment in a line: PBMC ex vivo monocyte depletion flow cytometry assay (Example 200). The format is cell-based. To be noted: with anti-cotinine antibody (SEQ ID NO: 11/12), 18-24 hours, EC50 in molar, read-out: Ex Vivo Depletion Assay pEC50 (converted). A digest of the protocol:
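Monocyte depletion is reported as pEC50, averaged or given individually across runs, and read by flow cytometry staining CD45, CD14 and CD4 with a viability dye. Compounds, diluted four-fold over 11 points from 1 mM DMSO stocks, were combined with 30 μg/mL Fc-enhanced anti-cotinine antibody and human PBMC, then incubated 18-24 h at 37° C.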

The test system of test [2] is CCR2 expressing cells (CD11b+Ly6c+Hi) in peripheral blood. The experiment in a line: In vivo depletion assay, flow cytometry of peripheral blood (Example 201). Set-up: species or system human CCR2 knock-in mice (C57 background). The note with it: hCCR2 knock-in mice, IV 0.1 mpk compound + 10 mpk anti-cotinine antibody (SEQ ID NO: 13/14), peripheral blood at 48 hr. In short, it runs like this:
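Mice dosed with compound formulated in saline/DMSO/PBS, with anti-cotinine antibody (rabbit variable region, mouse IgG2a Fc) where required, pre-incubated 30 min at room temperature. Terminal peripheral blood RBC-lysed, Fc-blocked, stained for CD45, CD3, CD11b, Ly6C, human CCR2 and 7AAD; percent depletion of CD11b+Ly6c+Hi cells determined by flow cytometry.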
(In general: Flow cytometry measures light scatter and fluorescence of single cells or particles in a stream.)

With `CC(C)N(C)[C@@H]1CC[C@H](N2CC[C@H](Nc3ncnc4ccc(C(F)(F)F)cc34)C2=O)[C@H](NC(=O)[C@H]2CC[C@@H](NC(=O)CCOCCNC(=O)CCNC(=O)CCNC(=O)[C@H]3CC(=O)N(C)[C@@H]3c3cccnc3)CC2)C1` [Example 182, (2S,3S)-N-(3-((3-((2-(3-(((1S,4s)-4-(((1R,2S,5R)-5-(Isopropyl(methyl)amino)-2-((S)-2-oxo-3-((6-(trifluoromethyl)quinazolin-4-yl)amino)pyrrolidin-1-yl)cyclohexyl)carbamoyl)cyclohexyl)amino)-3-oxopropoxy)ethyl)amino)-3-oxopropyl)amino)-3-oxopropyl)-1-methyl-5-oxo-2-(pyridin-3-yl)pyrrolidine-3-carboxamide], in test [1], the EC50 was 0.158 nM. Further, the “% Depletion of CCR2 expressing cells” value in test [2] worked out at 97%.

On to `CC(C)N(C)[C@@H]1CC[C@H](N2CC[C@H](Nc3ncnc4ccc(C(F)(F)F)cc34)C2=O)[C@H](NC(=O)CCOCCC(=O)N[C@H]2C[C@@H](C(=O)NCCOCCNC(=O)[C@H]3CC(=O)N(C)[C@@H]3c3cccnc3)C2)C1` [Example 186, (2S,3S)-N-(2-(2-((1S,3R)-3-(3-(3-(((1R,2S,5R)-5-(Isopropyl(methyl)amino)-2-((S)-2-oxo-3-((6-(trifluoromethyl)quinazolin-4-yl)amino)pyrrolidin-1-yl)cyclohexyl)amino)-3-oxopropoxy)propanamido)cyclobutane-1-carboxamido)ethoxy)ethyl)-1-methyl-5-oxo-2-(pyridin-3-yl)pyrrolidine-3-carboxamide], for which the EC50 in test [1] was 0.316 nM. Also, in test [2], the “% Depletion of CCR2 expressing cells” value turned out to be 96%.

On to `CC(C)N(C)[C@@H]1CC[C@H](N2CC[C@H](Nc3ncnc4ccc(C(F)(F)F)cc34)C2=O)[C@H](NC(=O)CCOCCC(=O)N[C@H]2C[C@H](C(=O)NCCOCCNC(=O)[C@H]3CC(=O)N(C)[C@@H]3c3cccnc3)C2)C1` [Example 187], for which, in test [1], the EC50 was 0.251 nM. For the same molecule, the “% Depletion of CCR2 expressing cells” value in test [2] worked out at 92%.

Take `CN1C(=O)C[C@H](C(=O)NCCOCCNC(=O)[C@H]2C[C@H](NC(=O)CCOCCC(=O)N[C@@H]3C[C@H](NC(C)(C)C)CC[C@@H]3N3CC[C@H](Nc4ncnc5ccc(C(F)(F)F)cc45)C3=O)C2)[C@H]1c1cccnc1` [Example 188, (2S,3S)-N-(2-(2-((1R,3S)-3-(3-(3-(((1R,2S,5R)-5-(tert-butylamino)-2-((S)-2-oxo-3-((6-(trifluoromethyl)quinazolin-4-yl)amino)pyrrolidin-1-yl)cyclohexyl)amino)-3-oxopropoxy)propanamido)cyclobutane-1-carboxamido)ethoxy)ethyl)-1-methyl-5-oxo-2-(pyridin-3-yl)pyrrolidine-3-carboxamide]: the EC50 in test [1] is 0.316 nM. Further, the “% Depletion of CCR2 expressing cells” value in test [2] amounted to 91%.

As to `CC(C)N(C)[C@@H]1CC[C@H](N2CC[C@H](Nc3ncnc4ccc(C(F)(F)F)cc34)C2=O)[C@H](NC(=O)CCCN2CCC3(CCN(CCCNC(=O)[C@H]4CC(=O)N(C)[C@@H]4c4cccnc4)CC3)CC2)C1` [Example 191, (2S,3S)-N-(3-(9-(4-(((1R,2S,5R)-5-(Isopropyl(methyl)amino)-2-((S)-2-oxo-3-((6-(trifluoromethyl)quinazolin-4-yl)amino)pyrrolidin-1-yl)cyclohexyl)amino)-4-oxobutyl)-3,9-diazaspiro[5.5]undecan-3-yl)propyl)-1-methyl-5-oxo-2-(pyridin-3-yl)pyrrolidine-3-carboxamide], in test [1], the EC50 was 0.501 nM. In addition, in test [2], the “% Depletion of CCR2 expressing cells” value is given as 69%.

With `CC(C)N(C)[C@@H]1CC[C@H](N2CC[C@H](Nc3ncnc4ccc(C(F)(F)F)cc34)C2=O)[C@H](NC(=O)[C@H]2CC[C@H](C(=O)NCCCOCCCCOCCCNC(=O)[C@H]3CC(=O)N(C)[C@@H]3c3cccnc3)CC2)C1` [Example 194, (1r,4R)-N^1-((1R,2S,5R)-5-(Isopropyl(methyl)amino)-2-((S)-2-oxo-3-((6-(trifluoromethyl)quinazolin-4-yl)amino)pyrrolidin-1-yl)cyclohexyl)-N^4-(3-(4-(3-((2S,3S)-1-methyl-5-oxo-2-(pyridin-3-yl)pyrrolidine-3-carboxamido)propoxy)butoxy)propyl)cyclohexane-1,4-dicarboxamide], the EC50 in test [1] was 0.631 nM. Moreover, the “% Depletion of CCR2 expressing cells” value in test [2] came out at 96%.
